Source: ChEMBL document CHEMBL1201862, “PubChem BioAssay data set” (2004)
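Following 48 hours of exposure in 96-well plates, responses at five concentrations were used to interpolate endpoints linearly. GI50 marks 50% less growth.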 Calls of active or inactive are those of the source. No stated cut-off is given here; in the data, active = GI50 up to about 1.1 µM and inactive = higher.

Experiments:
Test in all cases: NCI-60 cell line screen, 48 h
[1] = test system: MOLT-4
[2] = test system: MDA-MB-435
[3] = test system: 786-0
[4] = test system: PC-3
[5] = test system: U-251
[6] = test system: HCC 2998
[7] = test system: OVCAR-3
[8] = test system: K562
[9] = test system: M14
[10] = test system: SN12C
[11] = test system: TK-10
[12] = test system: SK-MEL-2
[13] = test system: BT-549
[14] = test system: OVCAR-5
[15] = test system: NCI-H23
[16] = test system: DU-145
[17] = test system: EKVX
[18] = test system: Malme-3M
[19] = test system: OVCAR-8

SMILES | GI50 [1] | GI50 [2] | GI50 [3] | GI50 [4] | GI50 [5] | GI50 [6] | GI50 [7] | GI50 [8] | GI50 [9] | GI50 [10] | GI50 [11] | GI50 [12] | GI50 [13] | GI50 [14] | GI50 [15] | GI50 [16] | GI50 [17] | GI50 [18] | GI50 [19]
CC1=CC[C@@H]2[C@@H](CC[C@@]2(C)O)C(C)(C)[C@H]1CC[C@@H]1[C@@]2(C)CC[C@@H](O)C(C)(C)O[C@@H]2CC[C@]1(C)O | 17.9 µM (inactive) | 22.3 µM (inactive) | 18.3 µM (inactive) | 40.6 µM (inactive) | 17.1 µM (inactive) | 17.5 µM (inactive) | 42.8 µM (inactive) | 15.3 µM (inactive) | 22.5 µM (inactive) | 24.9 µM (inactive) | 35.6 µM (inactive) | 34 µM (inactive) | 18.4 µM (inactive) | 29.9 µM (inactive) | 24.5 µM (inactive) | 36.3 µM (inactive) |  |  | 
CC(C)(C)c1cc(-c2ccc(-c3cc(C(C)(C)C)c(O)c(C(C)(C)C)c3)cc2)cc(C(C)(C)C)c1O | > 100 µM (inactive) | > 100 µM (inactive) | > 100 µM (inactive) | > 100 µM (inactive) | > 100 µM (inactive) |  | > 100 µM (inactive) | > 100 µM (inactive) | > 100 µM (inactive) | > 100 µM (inactive) | > 100 µM (inactive) | > 100 µM (inactive) | > 100 µM (inactive) | > 100 µM (inactive) | > 100 µM (inactive) | > 100 µM (inactive) | > 100 µM (inactive) | > 100 µM (inactive) | > 100 µM (inactive)
Cc1sc(NC=C2C(=O)CC(C)(C)CC2=O)nc1-c1ccccc1 | > 100 µM (inactive) | > 100 µM (inactive) | > 100 µM (inactive) | > 100 µM (inactive) | > 100 µM (inactive) | > 100 µM (inactive) | > 100 µM (inactive) | > 100 µM (inactive) | > 100 µM (inactive) | > 100 µM (inactive) | > 100 µM (inactive) | > 100 µM (inactive) | > 100 µM (inactive) | > 100 µM (inactive) | > 100 µM (inactive) | > 100 µM (inactive) | > 100 µM (inactive) |  | > 100 µM (inactive)
CCCCCCCCCCCCCCCC(=O)OCC(COP(=O)(O)OCCNC(=O)CCSSc1ccccn1)OC(=O)CCCCCCCCCCCCCCC (stereo not given) | > 100 µM (inactive) | > 100 µM (inactive) | > 100 µM (inactive) | > 100 µM (inactive) | > 100 µM (inactive) |  | > 100 µM (inactive) | > 100 µM (inactive) | > 100 µM (inactive) | > 100 µM (inactive) |  | > 100 µM (inactive) | > 100 µM (inactive) | > 100 µM (inactive) | > 100 µM (inactive) | > 100 µM (inactive) | > 100 µM (inactive) | > 100 µM (inactive) | > 100 µM (inactive)
CC(C)(C)OC(=O)n1c(-c2ccccc2F)cc(=O)c2cc3c(cc21)OCO3 | 0.106 µM (active) | 0.0214 µM (active) | 0.0541 µM (active) | 0.0391 µM (active) | 0.0476 µM (active) | 0.0715 µM (active) | 0.03 µM (active) |  | 1.4 µM (inactive) |  | 4.66 µM (inactive) | 0.0531 µM (active) | 19.8 µM (inactive) | 6.53 µM (inactive) | 0.398 µM (active) | 0.0451 µM (active) |  | 0.0526 µM (active) | 0.0906 µM (active)
